Reference: patent publication US9999619B2, “Piperidin-4-yl azetidine derivatives as JAK1 inhibitors” (Incyte Corporation, priority 2010, dated 2018)

What was measured:
Assay type in all cases: biochemical
[1] = biological target: Jak2 (a.a. 828-1132) (Homo sapiens (Human), UniProt O60674); test: In vitro JAK kinase assay (HTRF, phosphorylation of a biotinylated peptide), JAK2; settings: measured at 1 mM ATP
Method in brief: (§1)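 N-terminal His-tagged catalytic domains, baculovirus-expressed in insect cells, phosphorylated a biotinylated peptide for 1 hr at room temperature. EDTA stop was followed by SA-APC and Eu-Py20 antibody for 40 minutes, with phosphopeptide read by HTRF.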

[2] = biological target: human JAK1 (a.a. 837-1142) (Homo sapiens, UniProt P23458); test: In vitro JAK kinase assay (HTRF, phosphorylation of a biotinylated peptide), JAK1; settings: measured at 1 mM ATP
Method in brief: as §1

[3] = biological target: human JAK1 (a.a. 837-1142); test: as above; settings: ratio of JAK2 IC50 to JAK1 IC50, measured at 1 mM ATP
Method in brief: as §1

Sequence of Jak2 (a.a. 828-1132) (O60674 828-1132): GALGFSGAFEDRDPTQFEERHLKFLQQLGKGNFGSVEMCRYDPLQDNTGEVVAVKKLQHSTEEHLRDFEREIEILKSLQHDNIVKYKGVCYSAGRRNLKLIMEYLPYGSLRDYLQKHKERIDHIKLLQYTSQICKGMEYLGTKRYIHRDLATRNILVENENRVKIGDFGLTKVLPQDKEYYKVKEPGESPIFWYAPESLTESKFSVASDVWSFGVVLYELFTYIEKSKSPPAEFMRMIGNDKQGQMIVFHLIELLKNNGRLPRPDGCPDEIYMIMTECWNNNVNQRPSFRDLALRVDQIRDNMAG

| SMILES | IC50 [1] [µM] | IC50 [2] [µM] | IC50 Ratio JAK2/JAK1 [3] |
| --- | --- | --- | --- |
| N#CCC1(n2cc(-c3ncnc4[nH]ccc34)cn2)CN(C2CCN(C(=O)c3cc(F)c(F)c(F)c3F)CC2)C1 [Example 54, {3-[4-(7H-pyrrolo[2,3-d]pyrimidin-4-yl)-1H-pyrazol-1-yl]-1-[1-(2,3,4,5-tetrafluorobenzoyl)piperidin-4-yl]azetidin-3-yl}acetonitrile] | 0.05 to 0.1 | 0.005 to 0.02 | 9.1 |
| N#CCC1(n2cc(-c3ccnc4[nH]ccc34)cn2)CN(C2CCN(C(=O)Nc3ccncc3C(F)(F)F)CC2)C1 [Example 307, 4-{3-(cyanomethyl)-3-[4-(1H-pyrrolo[2,3-b]pyridin-4-yl)-1H-pyrazol-1-yl]azetidin-1-yl}-N-[3-(trifluoromethyl)pyridin-4-yl]piperidine-1-carboxamide] | 0.05 to 0.1 | 0.005 to 0.02 | 8.8 |
| N#CCC1(n2cc(-c3ncnc4[nH]ccc34)cn2)CN(C2CCN(C(=O)Nc3nc(-c4ccc(Cl)cc4)cs3)CC2)C1 [Example 195, N-[4-(4-chlorophenyl)-1,3-thiazol-2-yl]-4-{3-(cyanomethyl)-3-[4-(7H-pyrrolo[2,3-d]pyrimidin-4-yl)-1H-pyrazol-1-yl]azetidin-1-yl}piperidine-1-carboxamide] | 0.05 to 0.1 | 0.02 to 0.03 | 3.2 |
| N#CCC1(n2cc(-c3c(C#N)cnc4[nH]ccc34)cn2)CN(C2CCN(C(=O)c3cc(C#N)ccc3C#N)CC2)C1 [Example 337, 2-[(4-{3-(cyanomethyl)-3-[4-(5-cyano-1H-pyrrolo[2,3-b]pyridin-4-yl)-1H-pyrazol-1-yl]azetidin-1-yl}piperidin-1-yl)carbonyl]terephthalonitrile] | 0.01 to 0.05 | 0.005 to 0.02 | 6.0 |
| COc1ccc(F)c(C(=O)N2CCC(N3CC(CC#N)(n4cc(-c5ncnc6[nH]ccc56)cn4)C3)CC2)c1 [Example 27, {1-[1-(2-fluoro-5-methoxybenzoyl)piperidin-4-yl]-3-[4-(7H-pyrrolo[2,3-d]pyrimidin-4-yl)-1H-pyrazol-1-yl]azetidin-3-yl}acetonitrile] | 0.05 to 0.1 | 0.005 to 0.02 | 5.1 |
| N#CCC1(n2cc(-c3c(F)cnc4[nH]ccc34)cn2)CN(C2CCN(C(=O)Nc3ncccc3C(F)(F)F)CC2)C1 [Example 329, 4-{3-(cyanomethyl)-3-[4-(5-fluoro-1H-pyrrolo[2,3-b]pyridin-4-yl)-1H-pyrazol-1-yl]azetidin-1-yl}-N-[3-(trifluoromethyl)pyridin-2-yl]piperidine-1-carboxamide] | 0.05 to 0.1 | 0.005 to 0.02 | 4.5 |
| N#CCC1(n2cc(-c3ncnc4[nH]ccc34)cn2)CN(C2CCN(C(=O)c3ccc(C#N)cc3)CC2)C1 [Example 12, 4-[(4-{3-(cyanomethyl)-3-[4-(7H-pyrrolo[2,3-d]pyrimidin-4-yl)-1H-pyrazol-1-yl]azetidin-1-yl}piperidin-1-yl)carbonyl]benzonitrile] | > 0.1 | 0.02 to 0.03 | 5.2 |
| N#CCC1(n2cc(-c3c(C#N)cnc4[nH]ccc34)cn2)CN(C2CCN(C(=O)c3cc(C(F)(F)F)ncc3Cl)CC2)C1 [Example 341, 4-{1-[1-{1-[5-chloro-2-(trifluoromethyl)isonicotinoyl]piperidin-4-yl}-3-(cyanomethyl)azetidin-3-yl]-1H-pyrazol-4-yl}-1H-pyrrolo[2,3-b]pyridine-5-carbonitrile] | 0.05 to 0.1 | 0.005 to 0.02 | 3.2 |
| N#CCC1(n2cc(-c3ncnc4[nH]ccc34)cn2)CN(C2CCN(C(=O)c3c(F)cc(-c4cccnc4)cc3F)CC2)C1 [Example 116, {1-[1-(2,6-difluoro-4-pyridin-3-ylbenzoyl)piperidin-4-yl]-3-[4-(7H-pyrrolo[2,3-d]pyrimidin-4-yl)-1H-pyrazol-1-yl]azetidin-3-yl}acetonitrile] | 0.01 to 0.05 | ≤ 0.005 | 10.6 |
| CCOC(=O)N1CCC(N2CC(CC#N)(n3cc(-c4ncnc5[nH]ccc45)cn3)C2)CC1 [Example 388, ethyl 4-{3-(cyanomethyl)-3-[4-(7H-pyrrolo[2,3-d]pyrimidin-4-yl)-1H-pyrazol-1-yl]azetidin-1-yl}piperidine-1-carboxylate] | 0.01 to 0.05 | 0.005 to 0.02 | 7.6 |

Further lines, results first:

| IC50 [1] [µM] | IC50 [2] [µM] | IC50 Ratio JAK2/JAK1 [3] | SMILES |
| --- | --- | --- | --- |
| 0.01 to 0.05 | ≤ 0.005 | 10.0 | N#CCC1(n2ccc(-c3ncnc4[nH]ccc34)c2)CN(C2CCN(C(=O)c3cccc(OC(F)(F)F)c3F)CC2)C1 [Example 281, {1-{1-[2-fluoro-3-(trifluoromethoxy)benzoyl]piperidin-4-yl}-3-[3-(7H-pyrrolo[2,3-d]pyrimidin-4-yl)-1H-pyrrol-1-yl]azetidin-3-yl}acetonitrile] |
| 0.01 to 0.05 | ≤ 0.005 | 7.9 | N#CCC1(n2cc(-c3ncnc4[nH]ccc34)cn2)CN(C2CCN(C(=O)c3ccc(-c4ccc5ccncc5c4)c(F)c3)CC2)C1 [Example 133, {1-[1-(3-fluoro-4-isoquinolin-7-ylbenzoyl)piperidin-4-yl]-3-[4-(7H-pyrrolo[2,3-d]pyrimidin-4-yl)-1H-pyrazol-1-yl]azetidin-3-yl}acetonitrile] |
| 0.01 to 0.05 | 0.005 to 0.02 | 5.7 | N#CCC1(n2cc(-c3ncnc4[nH]ccc34)cn2)CN(C2CCN(C(=O)Nc3cc(F)cc(F)c3F)CC2)C1 [Example 173, 4-{3-(cyanomethyl)-3-[4-(7H-pyrrolo[2,3-d]pyrimidin-4-yl)-1H-pyrazol-1-yl]azetidin-1-yl}-N-(2,3,5-trifluorophenyl)piperidine-1-carboxamide] |
| 0.01 to 0.05 | ≤ 0.005 | 5.8 | N#CCC1(n2cc(-c3ncnc4[nH]ccc34)cn2)CN(C2CCN(C(=O)c3cccc(F)c3)CC2)C1 [Example 25, {1-[1-(3-fluorobenzoyl)piperidin-4-yl]-3-[4-(7H-pyrrolo[2,3-d]pyrimidin-4-yl)-1H-pyrazol-1-yl]azetidin-3-yl}acetonitrile] |
| ≤ 0.01 | ≤ 0.005 | 3.2 | COc1cccc(F)c1C(=O)N1CCC(N2CC(CC#N)(n3cc(-c4ncnc5[nH]ccc45)cn3)C2)CC1 [Example 39, {1-[1-(2-fluoro-6-methoxybenzoyl)piperidin-4-yl]-3-[4-(7H-pyrrolo[2,3-d]pyrimidin-4-yl)-1H-pyrazol-1-yl]azetidin-3-yl}acetonitrile] |
| 0.01 to 0.05 | 0.005 to 0.02 | 3.1 | N#CCC1(n2ccc(-c3ncnc4[nH]ccc34)c2)CN(C2CCN(C(=O)c3cccc(C(F)(F)F)c3)CC2)C1 [Example 268, (3-[3-(7H-pyrrolo[2,3-d]pyrimidin-4-yl)-1H-pyrrol-1-yl]-1-{1-[3-(trifluoromethyl)benzoyl]piperidin-4-yl}azetidin-3-yl)acetonitrile] |
| 0.01 to 0.05 | ≤ 0.005 | 14.3 | N#CCC1(n2cc(-c3ncnc4[nH]ccc34)cn2)CN(C2CCN(C(=O)c3ccc(O)c(F)c3)CC2)C1 [Example 6, {1-[1-(3-fluoro-4-hydroxybenzoyl)piperidin-4-yl]-3-[4-(7H-pyrrolo[2,3-d]pyrimidin-4-yl)-1H-pyrazol-1-yl]azetidin-3-yl}acetonitrile] |
| 0.01 to 0.05 | ≤ 0.005 | 9.0 | N#CCC1(n2cc(-c3ccnc4[nH]ccc34)cn2)CN(C2CCN(C(=O)Nc3ccccc3Cl)CC2)C1 [Example 310, N-(2-chlorophenyl)-4-{3-(cyanomethyl)-3-[4-(1H-pyrrolo[2,3-b]pyridin-4-yl)-1H-pyrazol-1-yl]azetidin-1-yl}piperidine-1-carboxamide] |
| 0.01 to 0.05 | ≤ 0.005 | 6.4 | N#CCC1(n2cc(-c3ncnc4[nH]ccc34)cn2)CN(C2CCN(C(=O)Nc3ncccc3F)CC2)C1 [Example 202, 4-{3-(cyanomethyl)-3-[4-(7H-pyrrolo[2,3-d]pyrimidin-4-yl)-1H-pyrazol-1-yl]azetidin-1-yl}-N-(3-fluoropyridin-2-yl)piperidine-1-carboxamide] |
| ≤ 0.01 | ≤ 0.005 | 2.1 | COc1cc(C(=O)N2CCC(N3CC(CC#N)(n4cc(-c5ncnc6[nH]ccc56)cn4)C3)CC2)cc(Cl)n1 [Example 37, {1-[1-(2-chloro-6-methoxyisonicotinoyl)piperidin-4-yl]-3-[4-(7H-pyrrolo[2,3-d]pyrimidin-4-yl)-1H-pyrazol-1-yl]azetidin-3-yl}acetonitrile] |
| 0.01 to 0.05 | ≤ 0.005 | 30.5 | CCNCc1cc(C(=O)N2CCC(N3CC(CC#N)(n4cc(-c5ncnc6[nH]ccc56)cn4)C3)CC2)nc(C(F)(F)F)n1 [Example 383, {1-(1-{[6-[(ethylamino)methyl]-2-(trifluoromethyl)pyrimidin-4-yl]carbonyl}piperidin-4-yl)-3-[4-(7H-pyrrolo[2,3-d]pyrimidin-4-yl)-1H-pyrazol-1-yl]azetidin-3-yl}acetonitrile] |
| ≤ 0.01 | ≤ 0.005 | 1.8 | CN(C)c1c(F)c(F)c(C(=O)N2CCC(N3CC(CC#N)(n4cc(-c5ncnc6[nH]ccc56)cn4)C3)CC2)c(F)c1F [Example 60, {1-{1-[4-(dimethylamino)-2,3,5,6-tetrafluorobenzoyl]piperidin-4-yl}-3-[4-(7H-pyrrolo[2,3-d]pyrimidin-4-yl)-1H-pyrazol-1-yl]azetidin-3-yl}acetonitrile] |
| 0.01 to 0.05 | ≤ 0.005 | 6.8 | COc1ccc2nc(Cl)c(CN3CCC(N4CC(CC#N)(n5cc(-c6ncnc7[nH]ccc67)cn5)C4)CC3)cc2c1 [Example 238, {1-{1-[(2-chloro-6-methoxyquinolin-3-yl)methyl]piperidin-4-yl}-3-[4-(7H-pyrrolo[2,3-d]pyrimidin-4-yl)-1H-pyrazol-1-yl]azetidin-3-yl}acetonitrile] |
